Read-outs that look alike come from different tables or passages of the source.
Key:
Water solubility = assay type: physicochemical; conditions: degradation products of the prodrug
[1] = background statement; cited from earlier work
[2] = commercially available formulations; cited from earlier work
[3] = anesthetic induction doses; cited from earlier work
[4] = DIP (propofol) formation by hydrolysis at accelerated stability conditions as a function of pH; assay type: physicochemical; conditions: for DIP formation: 40° C./75% RH
From the text: This example illustrates that the degradation of O-phosphonooxymethyl propofol is pH dependent. In particular, higher pH conditions generally result in lower rates of hydrolysis (degradation) of the prodrug, while lower pH conditions increase the rate of hydrolysis. […]

For quinone, the Water solubility (Water solubility) was “poorly water-soluble”.

In the case of `CC(C)c1cccc(C(C)C)c1O` [propofol], the Water solubility [1] is given as “poorly water soluble”, the Oral bioavailability [2] is given as “very low” and the Water solubility (Water solubility) is given as “poorly water-soluble”. For the same molecule, the “Respiratory consequences, including a reduction in tidal volume and apnea” value [3] was “up to 83 % of patients”.

For `Oc1ccc(O)cc1` [hydroquinone], the Water solubility (Water solubility) was “poorly water-soluble”.

Molecule `CC(C)c1cccc(C(C)C)c1OCOP(=O)(O)O` [O-phosphonooxymethyl propofol, O-phosphonooxymethyl-propofol] has a DIP formation ([4]; pH 6.9, 1 month) of 1.22 % w/v, a DIP formation ([4]; pH 6.9, 3 months) of 1.90 % w/v and a DIP formation ([4]; pH 6.9, 6 months) of 3.47 % w/v. The DIP formation ([4]; pH 7.4, 1 month) was 0.83 % w/v, the DIP formation ([4]; pH 7.4, 3 months) was 0.67 % w/v and the DIP formation ([4]; pH 7.4, 6 months) was 2.14 % w/v. It also gave a DIP formation ([4]; pH 8.0, 1 month) of 0.32 % w/v, a DIP formation ([4]; pH 8.0, 3 months) of 0.76 % w/v and a DIP formation ([4]; pH 8.0, 6 months) of 0.72 % w/v. The DIP formation ([4]; pH 8.5, 1 month) was 0.15 % w/v, the DIP formation ([4]; pH 8.5, 3 months) was 0.41 % w/v and the DIP formation ([4]; pH 8.5, 6 months) was 0.73 % w/v. For the same molecule, the DIP formation ([4]; pH 9.1, 3 months) was 0.12 % w/v, the DIP formation ([4]; pH 9.1, 6 months) was 0.22 % w/v and the DIP formation ([4]; pH 9.9, 6 months) was 0.09 % w/v. For the same molecule, the Amount of hydrolysis ([4]; pH of about 9-9.5, 40° C., 75% RH) was “least amount of hydrolysis”.
